pIC50: −log10 of the molar value. Where a SMILES comes first, the peptide text is derived from it. [ ]: non-standard residue; d: D form. The star is where a group is joined. X1 = Cc1ccc(Nc2ncc3c(n2)N(C)C(=O)N(c2cc(C(=O)*)ccc2C)C3)cn1; Chg = N[C@H](C(=O)O)C1CCCCC1; Pip = O=C(O)[C@@H]1CCCCN1; Aze = O=C(O)[C@@H]1CCN1; Nva = CCC[C@H](N)C(=O)O; Aib = CC(C)(N)C(=O)O

The target of one assay is T1, Lck (Homo sapiens, UniProt P06239).
T1 construct: purchased Reaction Biology Corp
Put plainly: In vitro kinase assay (IC50). Format: biochemical. Here is the method:
(§1) Full panel kinase profiling and kinase IC50 measurement were performed by using Reaction Biology Corp. (San Diego, USA).

The next assay has as its target T2, c-Src (Homo sapiens, UniProt P12931).
T2 construct: purchased Reaction Biology Corp
Put plainly: In vitro kinase assay (IC50). Format: biochemical. Here is the method: as §1

T1 sequence (P06239 whole entry): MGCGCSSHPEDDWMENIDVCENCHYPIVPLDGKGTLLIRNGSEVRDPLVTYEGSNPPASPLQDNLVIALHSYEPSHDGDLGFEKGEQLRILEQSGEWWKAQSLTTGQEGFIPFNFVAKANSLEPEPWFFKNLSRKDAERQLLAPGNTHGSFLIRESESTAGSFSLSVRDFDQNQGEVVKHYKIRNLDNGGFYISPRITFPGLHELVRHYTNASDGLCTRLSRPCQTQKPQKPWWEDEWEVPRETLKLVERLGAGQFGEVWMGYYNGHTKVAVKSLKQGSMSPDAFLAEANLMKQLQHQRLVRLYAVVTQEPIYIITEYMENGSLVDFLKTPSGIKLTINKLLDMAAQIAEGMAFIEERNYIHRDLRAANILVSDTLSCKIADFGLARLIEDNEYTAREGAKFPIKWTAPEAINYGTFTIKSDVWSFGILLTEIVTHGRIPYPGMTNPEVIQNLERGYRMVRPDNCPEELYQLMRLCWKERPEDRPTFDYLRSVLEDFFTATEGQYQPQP
T2 sequence (P12931 whole entry): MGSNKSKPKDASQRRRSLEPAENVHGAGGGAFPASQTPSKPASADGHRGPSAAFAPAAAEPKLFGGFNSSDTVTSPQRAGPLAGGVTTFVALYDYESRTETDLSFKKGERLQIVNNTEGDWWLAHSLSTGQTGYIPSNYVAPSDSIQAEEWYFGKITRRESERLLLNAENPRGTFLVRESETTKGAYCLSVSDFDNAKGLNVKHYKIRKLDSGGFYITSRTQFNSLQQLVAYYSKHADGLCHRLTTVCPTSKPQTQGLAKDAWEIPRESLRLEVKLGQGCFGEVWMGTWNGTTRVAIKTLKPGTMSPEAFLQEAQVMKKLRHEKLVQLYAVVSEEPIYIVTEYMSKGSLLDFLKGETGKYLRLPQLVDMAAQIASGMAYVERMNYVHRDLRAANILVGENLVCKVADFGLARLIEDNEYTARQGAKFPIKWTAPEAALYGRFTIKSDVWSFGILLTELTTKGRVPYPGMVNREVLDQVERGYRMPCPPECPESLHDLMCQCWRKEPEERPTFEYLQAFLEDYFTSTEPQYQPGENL

What is called pIC50 is the IC50 on a negative log10 scale, so that one unit is a factor of ten. As for `Cc1ccc(Nc2ncc3c(n2)N(C)C(=O)N(c2cc(C(=O)N[C@H](C(=O)N4CCC[C@H]4C(=O)N[C@@H](Cc4ccccc4)C(=O)N[C@@H](CC(C)C)C(=O)N(C)C)C(C)C)ccc2C)C3)cn1` [7i, (S)-N-((S)-1-(((S)-1-(dimethylamino)-4-methyl-1-oxopentan-2-yl)amino)-1-oxo-3-phenylpropan-2-yl)-1-((4-methyl-3-(1-methyl-7-((6-methylpyridin-3-yl)amino)-2-oxo-1,4-dihydropyrimido[4,5-d]pyrimidin-3(2H)-yl)benzoyl)-L-valyl)pyrrolidine-2-carboxamide] (X1-VPFL-NMe2), the pIC50 is 7.21 at Lck and 6.91 on c-Src.
In the same order, the values of `Cc1ccc(Nc2ncc3c(n2)N(C)C(=O)N(c2cc(C(=O)N[C@H](C(=O)N4CCCC[C@H]4C(=O)NC(C)(C)C(=O)N[C@@H](CC(C)C)C(=O)N(C)C)C(C)C)ccc2C)C3)cn1` [7j, (S)-N-(1-(((S)-1-(dimethylamino)-4-methyl-1-oxopentan-2-yl)amino)-2-methyl-1-oxopropan-2-yl)-1-((4-methyl-3-(1-methyl-7-((6-methylpyridin-3-yl)amino)-2-oxo-1,4-dihydropyrimido[4,5-d]pyrimidin-3(2H)-yl)benzoyl)-L-valyl)piperidine-2-carboxamide] (X1-V[Pip][Aib]L-NMe2) are 7.74 and 6.23.
With `Cc1ccc(Nc2ncc3c(n2)N(C)C(=O)N(c2cc(C(=O)N[C@H](C(=O)N4CC[C@H]4C(=O)NC(C)(C)C(=O)N[C@@H](CC(C)C)C(=O)N(C)C)C(C)C)ccc2C)C3)cn1` [7k, (S)-N-(1-(((S)-1-(dimethylamino)-4-methyl-1-oxopentan-2-yl)amino)-2-methyl-1-oxopropan-2-yl)-1-((4-methyl-3-(1-methyl-7-((6-methylpyridin-3-yl)amino)-2-oxo-1,4-dihydropyrimido[4,5-d]pyrimidin-3(2H)-yl)benzoyl)-L-valyl)azetidine-2-carboxamide] (X1-V[Aze][Aib]L-NMe2), the pIC50 is 6.52 against Lck and 6.04 on c-Src. Besides, the “decrease of Lck/c-Src selectivity compared to 7a” value at Lck is given as over 10 fold.
As to `Cc1ccc(Nc2ncc3c(n2)N(C)C(=O)N(c2cc(C(=O)N[C@@H](Cc4ccccc4)C(=O)N4CCC[C@H]4C(=O)NC(C)(C)C(=O)N[C@H](C(=O)N(C)C)C(C)C)ccc2C)C3)cn1` [7l, (S)-N-(1-(((S)-1-(dimethylamino)-3-methyl-1-oxobutan-2-yl)amino)-2-methyl-1-oxopropan-2-yl)-1-((4-methyl-3-(1-methyl-7-((6-methylpyridin-3-yl)amino)-2-oxo-1,4-dihydropyrimido[4,5-d]pyrimidin-3(2H)-yl)benzoyl)-L-phenylalanyl)pyrrolidine-2-carboxamide] (X1-FP[Aib]V-NMe2), the pIC50 was 6.81 against Lck and 5.76 at c-Src.
For the molecule `Cc1ccc(Nc2ncc3c(n2)N(C)C(=O)N(c2cc(C(=O)N[C@@H](C)C(=O)N4CCC[C@H]4C(=O)NC(C)(C)C(=O)N[C@H](C(=O)N(C)C)C(C)C)ccc2C)C3)cn1` [7m, (S)-N-(1-(((S)-1-(dimethylamino)-3-methyl-1-oxobutan-2-yl)amino)-2-methyl-1-oxopropan-2-yl)-1-((4-methyl-3-(1-methyl-7-((6-methylpyridin-3-yl)amino)-2-oxo-1,4-dihydropyrimido[4,5-d]pyrimidin-3(2H)-yl)benzoyl)-L-alanyl)pyrrolidine-2-carboxamide] (X1-AP[Aib]V-NMe2), the pIC50 is 6.42 on Lck and 5.40 at c-Src.
The corresponding values for `Cc1ccc(Nc2ncc3c(n2)N(C)C(=O)N(c2cc(C(=O)N[C@H](C(=O)N4CCC[C@H]4C(=O)NC(C)(C)C(=O)N[C@H](C(=O)N(C)C)C(C)C)C(C)C)ccc2C)C3)cn1` [7n, (S)-N-(1-(((S)-1-(dimethylamino)-3-methyl-1-oxobutan-2-yl)amino)-2-methyl-1-oxopropan-2-yl)-1-((4-methyl-3-(1-methyl-7-((6-methylpyridin-3-yl)amino)-2-oxo-1,4-dihydropyrimido[4,5-d]pyrimidin-3(2H)-yl)benzoyl)-L-valyl)pyrrolidine-2-carboxamide] (X1-VP[Aib]V-NMe2) are 6.14 and 5.50.
The corresponding values for `Cc1ccc(Nc2ncc3c(n2)N(C)C(=O)N(c2cc(C(=O)N[C@H](C(=O)N4CCC[C@@H]4C(=O)NC(C)(C)C(=O)N[C@H](C(=O)N(C)C)C(C)C)C(C)C)ccc2C)C3)cn1` [7o, (R)-N-(1-(((S)-1-(dimethylamino)-3-methyl-1-oxobutan-2-yl)amino)-2-methyl-1-oxopropan-2-yl)-1-((4-methyl-3-(1-methyl-7-((6-methylpyridin-3-yl)amino)-2-oxo-1,4-dihydropyrimido[4,5-d]pyrimidin-3(2H)-yl)benzoyl)-L-valyl)pyrrolidine-2-carboxamide] (X1-V[dP][Aib]V-NMe2) are 5.98 and under 5.00.
The corresponding values for `CC[C@H](C)[C@H](NC(=O)c1ccc(C)c(N2Cc3cnc(Nc4ccc(C)nc4)nc3N(C)C2=O)c1)C(=O)N1CCC[C@H]1C(=O)NC(C)(C)C(=O)N[C@@H](CC(C)C)C(=O)N(C)C` [7p, (S)-N-(1-(((S)-1-(dimethylamino)-4-methyl-1-oxopentan-2-yl)amino)-2-methyl-1-oxopropan-2-yl)-1-((4-methyl-3-(1-methyl-7-((6-methylpyridin-3-yl)amino)-2-oxo-1,4-dihydropyrimido[4,5-d]pyrimidin-3(2H)-yl)benzoyl)-L-isoleucyl)pyrrolidine-2-carboxamide] (X1-IP[Aib]L-NMe2) are 7.25 and 6.48.
For `Cc1ccc(Nc2ncc3c(n2)N(C)C(=O)N(c2cc(C(=O)N[C@@H](CC(C)C)C(=O)N4CCC[C@H]4C(=O)NC(C)(C)C(=O)N[C@@H](CC(C)C)C(=O)N(C)C)ccc2C)C3)cn1` [7q, (S)-N-(1-(((S)-1-(dimethylamino)-4-methyl-1-oxopentan-2-yl)amino)-2-methyl-1-oxopropan-2-yl)-1-((4-methyl-3-(1-methyl-7-((6-methylpyridin-3-yl)amino)-2-oxo-1,4-dihydropyrimido[4,5-d]pyrimidin-3(2H)-yl)benzoyl)-L-leucyl)pyrrolidine-2-carboxamide] (X1-LP[Aib]L-NMe2), at Lck, the pIC50 was 7.81 and the “selectivity for Lck over c-Src” value was over 10 fold. The molecule also showed a pIC50 at c-Src of 6.76.
In the case of `Cc1ccc(Nc2ncc3c(n2)N(C)C(=O)N(c2cc(C(=O)NCC(=O)N4CCC[C@H]4C(=O)NC(C)(C)C(=O)N[C@@H](CC(C)C)C(=O)N(C)C)ccc2C)C3)cn1` [7r, (S)-N-(1-(((S)-1-(dimethylamino)-4-methyl-1-oxopentan-2-yl)amino)-2-methyl-1-oxopropan-2-yl)-1-((4-methyl-3-(1-methyl-7-((6-methylpyridin-3-yl)amino)-2-oxo-1,4-dihydropyrimido[4,5-d]pyrimidin-3(2H)-yl)benzoyl)glycyl)pyrrolidine-2-carboxamide] (X1-GP[Aib]L-NMe2), the values for the negative logarithm of the IC50 (pIC50) against Lck and on c-Src were 6.67 and 6.24, respectively.
As to `Cc1ccc(Nc2ncc3c(n2)N(C)C(=O)N(c2cc(C(=O)N[C@H](C(=O)N4CCC[C@H]4C(=O)NC(C)(C)C(=O)N[C@@H](CC(C)C)C(=O)N(C)C)C4CCCCC4)ccc2C)C3)cn1` [7s, (S)-1-((S)-2-cyclohexyl-2-(4-methyl-3-(1-methyl-7-((6-methylpyridin-3-yl)amino)-2-oxo-1,4-dihydropyrimido[4,5-d]pyrimidin-3(2H)-yl)benzamido)acetyl)-N-(1-(((S)-1-(dimethylamino)-4-methyl-1-oxopentan-2-yl)amino)-2-methyl-1-oxopropan-2-yl)pyrrolidine-2-carboxamide] (X1-[Chg]P[Aib]L-NMe2), at Lck, the pIC50 is 7.44 and the “selectivity for Lck over c-Src” value was over 10 fold. In addition, the pIC50 at c-Src was 6.36.
As to `CCC[C@H](NC(=O)c1ccc(C)c(N2Cc3cnc(Nc4ccc(C)nc4)nc3N(C)C2=O)c1)C(=O)N1CCC[C@H]1C(=O)NC(C)(C)C(=O)N[C@@H](CC(C)C)C(=O)N(C)C` [7t, (S)-N-(1-(((S)-1-(dimethylamino)-4-methyl-1-oxopentan-2-yl)amino)-2-methyl-1-oxopropan-2-yl)-1-((S)-2-(4-methyl-3-(1-methyl-7-((6-methylpyridin-3-yl)amino)-2-oxo-1,4-dihydropyrimido[4,5-d]pyrimidin-3(2H)-yl)benzamido)pentanoyl)pyrrolidine-2-carboxamide] (X1-[Nva]P[Aib]L-NMe2), the pIC50 against Lck was 7.15; against c-Src, 6.32.
The corresponding values for `Cc1ccc(Nc2ncc3c(n2)N(C)C(=O)N(c2cc(C(=O)N[C@H](C(=O)N4CCC[C@H]4C(=O)NC(C)(C)C(=O)NCC(=O)N(C)C)C(C)C)ccc2C)C3)cn1` [7u, (S)-N-(1-((2-(dimethylamino)-2-oxoethyl)amino)-2-methyl-1-oxopropan-2-yl)-1-((4-methyl-3-(1-methyl-7-((6-methylpyridin-3-yl)amino)-2-oxo-1,4-dihydropyrimido[4,5-d]pyrimidin-3(2H)-yl)benzoyl)-L-valyl)pyrrolidine-2-carboxamide] (X1-VP[Aib]G-NMe2) are 6.76 and 5.94.
In the same order, the values of `Cc1ccc(Nc2ncc3c(n2)N(C)C(=O)N(c2cc(C(=O)N[C@H](C(=O)N4CCC[C@@H]4C(=O)N[C@H](C(=O)N[C@H](C)c4ccccc4)C(C)C)C(C)C)ccc2C)C3)cn1` [7v, (R)-N-((S)-3-methyl-1-oxo-1-(((R)-1-phenylethyl)amino)butan-2-yl)-1-((4-methyl-3-(1-methyl-7-((6-methylpyridin-3-yl)amino)-2-oxo-1,4-dihydropyrimido[4,5-d]pyrimidin-3(2H)-yl)benzoyl)-L-valyl)pyrrolidine-2-carboxamide] are 6.39 and 5.25.

For the origin of these results see PMC9067983, “Identification of highly selective type II kinase inhibitors with chiral peptidomimetic tails” (Journal of Enzyme Inhibition and Medicinal Chemistry, 2022).
